Measured values: patent US7090985B2, “Methods for the identification of agents for the treatment of seizures, neurological diseases, endocrinopathies and hormonal diseases” (UCB, S.A., priority 2002, dated 2006)

Experiments:
human SV2A = molecular target: T1, human SV2A (Homo sapiens, UniProt Q7L0J3); assay: 3H-30889 intact cell binding to COS-7 cells transfected with SV2A; details: displacement of 3H-30889, intact transfected COS-7 cells
T1 construct: expressed in transfected cells; host or cells: COS-7 cells, transient transfection (Lipofectamine 2000), vector pDEST 12.2
Source text: The human SV2A coding region was transferred from the pDONR GATEWAY cloning vector to a pDEST 12.2 Gateway expression vector. This vector has a CMV promoter driving the introduced gene, and an SV40 ori, which allows very high levels of replication in the COS-7 cell line, which contains the large T antigen. In addition, the human SV2A coding region was transferred into a pDEST 40 Gateway expression vector. This vector is very similar to the 12.2 vector above, with a CMV promoter driving expression of hSV2A, and an SV40 ori, and a Neomycin resistance gene.
Lipofectamine 2000 (Invitrogen) transfection reagent was used to transfect DNA into 90% confluent COS-7 cells. Also, the same reagent was used to transfect the hSV2A containing vector into the PC12a cell line, and selecting for antibiotic resistance. Anti-SV2 polyclonal antibody (CalBiochem) was used to test for expression in either transfected COS-7 cells, or transfected PC 12a cells, of the SV2A product. Lysates of the COS-7 cells were collected at 18 hrs after transfection on an SDS-PAGE gel, transferred to a membrane, and probed with a polyclonal antibody against SV2A, in comparison to crude rat brain membranes (FIG. 12A). Also shown are lysates from a non-transfected COS-7 cells, non-transfected PC12a cells (low in LBS), PC12bs cells (high in LBS), or PC 12a cells transfected with hSV2A (FIG. 12B). No labeling of protein bands is observed in the untransfected COS-7 control, while the transfected COS-7 cells show multiple bands, with most density in the range of 80–120 kD, perhaps due to multiple glycosylation states of the expressed protein. […]
In a binding experiment, specific binding was measured of ^3H-30889 to COS-7 cells that have either been transfected with SV2A-12.2, or as controls, a β-gal expressing vector, or cells that have not been transfected (FIG. 13). […] The cells were lysed on the plate, transferred to scintillation vials with scintillation fluid and counted for ^3H decay emission. […]

[1] = test system: audiogenic-susceptible mouse; details: cited from earlier work
[2] = adjunctive therapy, adults; cited from earlier work
[3] = test system: peripheral tissues including heart, kidneys, spleen, pancreas, adrenals, lungs and liver; details: radiolabel studies; cited from earlier work
[4] = molecular target: T2, levetiracetam binding site (LBS) (Rattus norvegicus, UniProt Q02563); set-up: from tissue; host or cells: rat brain (crude membranes; 25 µm brain slices for autoradiography); details: cited from earlier work
peripheral tissues = assay: [3H]ucb 30889 specific binding in peripheral tissues; details: 150 μg of protein/assay, 1.3 nM radioligand; limit of detection Bmax 200 fmol/mg protein
Description: The limit of detection under the experimental conditions (150 μg of protein/assay and 1.3 nM of radioligand) was a Bmax of 200 fmol/mg protein.

PC12 = assay: [3H]ucb 30889 binding in cell types; set-up: species or system rat
Description: (§1) To identify and characterize the LBS in situ, ^[3H]ucb 30889 was used to map the LBS within the brain and to study both its cellular and subcellular distribution. […] Binding assays with rat brain membranes and various neuronal cell lines were performed under similar conditions. […] For photolabeling, membranes were incubated with […] ^[3H]ucb 30889 for 120 min at 4° C. in the same buffer, followed by irradiation with UV-light for 30 min.
(§2) Abbreviation: nd, not detected.

COS-7 = assay: [3H]ucb 30889 binding in cell types; details: untransfected COS-7 cell line
Description: as §1, §2
In addition, a PC12 cell line subclone, PC12a, which is low in LBS, was used to establish a pool of PC12 cells expressing hSV2A under stable antibiotic selection.

[5] = molecular target: T2, levetiracetam binding site (LBS); assay: [3H]ucb 30889 binding on crude rat brain membranes (kinetics, saturation, competition)

T2 sequence (Q02563 whole entry): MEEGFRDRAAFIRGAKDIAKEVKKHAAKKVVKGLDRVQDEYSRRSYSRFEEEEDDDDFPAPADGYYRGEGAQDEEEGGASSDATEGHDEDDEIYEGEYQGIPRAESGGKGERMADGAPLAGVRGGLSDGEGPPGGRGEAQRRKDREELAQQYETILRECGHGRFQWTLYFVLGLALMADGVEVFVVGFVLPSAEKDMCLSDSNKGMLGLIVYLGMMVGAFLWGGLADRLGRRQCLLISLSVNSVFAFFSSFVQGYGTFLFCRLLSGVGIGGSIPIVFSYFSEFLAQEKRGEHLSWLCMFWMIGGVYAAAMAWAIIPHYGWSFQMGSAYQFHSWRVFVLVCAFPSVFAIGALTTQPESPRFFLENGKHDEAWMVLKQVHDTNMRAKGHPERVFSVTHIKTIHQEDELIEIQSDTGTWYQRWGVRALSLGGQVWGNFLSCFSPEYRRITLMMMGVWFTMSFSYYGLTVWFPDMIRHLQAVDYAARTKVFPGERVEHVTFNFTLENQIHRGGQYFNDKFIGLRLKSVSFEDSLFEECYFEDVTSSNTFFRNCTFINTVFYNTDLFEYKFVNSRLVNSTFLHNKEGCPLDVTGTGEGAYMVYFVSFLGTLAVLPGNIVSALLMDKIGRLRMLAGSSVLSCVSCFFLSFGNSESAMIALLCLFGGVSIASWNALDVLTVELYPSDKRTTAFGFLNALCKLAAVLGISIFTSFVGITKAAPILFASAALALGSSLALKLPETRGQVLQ
T1 sequence (Q7L0J3 whole entry): as the sequence (Q02563 whole entry) above, with E53D, A62S, A71T, D144E, T154A, S440G, A482S, V572I, L634M counted along it

SMILES	IC50 against SV2A expressed in COS-7 cells (rank order) (human SV2A)	suppression of seizures [1]	efficacy in controlling refractory partial seizures [2]	tolerability [2]	specific binding [3]	affinity ([4]; rat hippocampal membranes)	binding capacity ([4]; rat hippocampal membranes)	specific binding (peripheral tissues)	Bmax (PC12)	Kd (PC12)	binding (COS-7)	Kd [5]	Ki [5]	times less affinity for the LBS than levetiracetam ([4]; rat brain membranes)
CC[C@@H](C(N)=O)N1CCCC1=O [levetiracetam, (S)-α-ethyl-2-oxo-1-pyrrolidine acetamide]	same rank order as seen in studies of LBS in rat brain	unexpected potent ability	effective	well tolerated	no specific binding	modest affinity	high binding capacity	–	–	–	–	–	–	–
CC[C@@H](C(N)=O)N1CC(c2cccc(N=[N+]=[N-])c2)CC1=O (stereo partly shown) [ucb 30889]	same rank order as seen in studies of LBS in rat brain	–	–	–	–	–	–	could not be detected	79000 sites/cell	50 nM	no binding above background	42 nM	79.4 nM	–
CC[C@H](C(N)=O)N1CCCC1=O [ucb L060]	same rank order as seen in studies of LBS in rat brain	–	–	–	–	–	–	–	–	–	–	–	–	about 1000 times
